Assay results published in US20230373985A1 (Origenis Gmbh, priority 2020, published 2023).

Key:
[1] = molecular target: T1, wt human TYK2, catalytic site (Homo sapiens, UniProt P29597); assay: HTRF KinEASE assay, TYK2; assay type: biochemical; settings: 1 μM ATP; read-out: IC50, Activity Toward TYK2
T1 construct: wt human TYK2, catalytic site; purchased SignalChem
T1 sequence (P29597 897-1176 limits assumed): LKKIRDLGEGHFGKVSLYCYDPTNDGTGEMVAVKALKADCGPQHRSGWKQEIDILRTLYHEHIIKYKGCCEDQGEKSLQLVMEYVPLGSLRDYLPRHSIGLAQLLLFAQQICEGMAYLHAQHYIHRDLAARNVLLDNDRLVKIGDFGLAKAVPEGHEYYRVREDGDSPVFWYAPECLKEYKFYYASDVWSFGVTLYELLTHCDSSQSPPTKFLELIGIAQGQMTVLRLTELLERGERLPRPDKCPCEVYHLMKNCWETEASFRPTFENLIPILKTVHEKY
How it was run: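 HTRF KinEASE-TK readout with 1 μM biotinylated TK substrate in 1× kinase buffer, ≥30 min at room temperature, then antibody/streptavidin-XL665 detection for 60 min. TYK2 at 2 nM with 1 μM ATP; JAK2 at 1 nM with 100 μM ATP. Analysis uses emission ratios.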

[2] = molecular target: T2, wt human JAK1, catalytic site (Homo sapiens, UniProt P23458); assay: HTRF KinEASE assay, JAK1; assay type: biochemical; settings: 2.5 μM ATP; read-out: IC50, Activity Toward JAK1
T2 construct: wt human JAK1, catalytic site; purchased ThermoFisher
How it was run: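 Two-step HTRF KinEASE assay: compound, kinase/biotinylated TK substrate and ATP were incubated at least 30 min at room temperature. Antibody plus streptavidin-XL665 was then added and plates were read after 60 min. Inhibition was derived from emission ratios according to the kit protocol.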

T2 sequence (P23458 875-1153 limits assumed): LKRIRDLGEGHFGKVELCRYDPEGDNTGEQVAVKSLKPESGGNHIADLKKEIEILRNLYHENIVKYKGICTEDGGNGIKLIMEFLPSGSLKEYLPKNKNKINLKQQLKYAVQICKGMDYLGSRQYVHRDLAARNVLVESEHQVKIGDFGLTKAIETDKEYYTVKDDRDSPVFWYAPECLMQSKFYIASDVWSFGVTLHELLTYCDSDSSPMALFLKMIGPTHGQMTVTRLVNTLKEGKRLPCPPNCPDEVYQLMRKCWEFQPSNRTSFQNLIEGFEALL

| SMILES | IC50 [1] | IC50 [2] |
| --- | --- | --- |
| CCc1ncnn1-c1ccc(Nc2cn(-c3c(Cl)cccc3Cl)nc2C(N)=O)cc1 [compound 291, 1-(2,6-dichlorophenyl)-4-((4-(5-ethyl-1H-1,2,4-triazol-1-yl)phenyl)amino)-1H-pyrazole-3-carboxamide] | 10 to 100 nM | < 10 nM |
| COCn1cc(C(F)(F)F)nc1-c1ccc(Nc2cn(-c3c(Cl)cccc3Cl)nc2C(N)=O)cc1 [compound 292, 1-(2,6-dichlorophenyl)-4-((4-(1-(methoxymethyl)-4-(trifluoromethyl)-1H-imidazol-2-yl)phenyl)amino)-1H-pyrazole-3-carboxamide] | < 10 nM | 10 to 100 nM |
| CCn1cc(C(F)(F)F)nc1-c1ccc(Nc2cn(-c3c(Cl)cccc3Cl)nc2C(N)=O)cc1 [compound 293, 1-(2,6-dichlorophenyl)-4-((4-(1-ethyl-4-(trifluoromethyl)-1H-imidazol-2-yl)phenyl)amino)-1H-pyrazole-3-carboxamide] | 10 to 100 nM | 10 to 100 nM |
| Cn1cc(C(F)(F)F)nc1-c1ccc(Nc2cn(-c3c(Cl)cccc3Cl)nc2C(N)=O)cc1 [compound 294, 1-(2,6-dichlorophenyl)-4-((4-(1-methyl-4-(trifluoromethyl)-1H-imidazol-2-yl)phenyl)amino)-1H-pyrazole-3-carboxamide] | < 10 nM | 10 to 100 nM |
| CN(C)Cc1nc(C(F)(F)F)nn1-c1ccc(Nc2cn(-c3c(Cl)cccc3Cl)nc2C(N)=O)cc1 [compound 297, 1-(2,6-dichlorophenyl)-4-((4-(5-((dimethylamino)methyl)-3-(trifluoromethyl)-1H-1,2,4-triazol-1-yl)phenyl)amino)-1H-pyrazole-3-carboxamide] | < 10 nM | 100 to 1000 nM |
| COCc1nc(C(F)(F)F)nn1-c1ccc(Nc2cn(-c3c(F)cccc3Cl)nc2C(N)=O)cc1 [compound 298, 1-(2-chloro-6-fluorophenyl)-4-((4-(5-(methoxymethyl)-3-(trifluoromethyl)-1H-1,2,4-triazol-1-yl)phenyl)amino)-1H-pyrazole-3-carboxamide] | 10 to 100 nM | 100 to 1000 nM |
| COCc1ncnn1-c1ccc(Nc2cn(-c3c(Cl)cccc3Cl)nc2C(N)=O)cc1 [compound 300, 1-(2,6-dichlorophenyl)-4-((4-(5-(methoxymethyl)-1H-1,2,4-triazol-1-yl)phenyl)amino)-1H-pyrazole-3-carboxamide] | 10 to 100 nM | 100 to 1000 nM |
| COCCn1cc(C(F)(F)F)nc1-c1ccc(Nc2cn(-c3c(Cl)cccc3Cl)nc2C(N)=O)cc1 [compound 307, 1-(2,6-dichlorophenyl)-4-((4-(1-(2-methoxyethyl)-4-(trifluoromethyl)-1H-imidazol-2-yl)phenyl)amino)-1H-pyrazole-3-carboxamide] | 10 to 100 nM | 100 to 1000 nM |
| CC(C)(C)OC(=O)N[C@@H]1CCN(C(=O)c2ccc(Nc3cn(-c4c(Cl)cccc4Cl)nc3C(N)=O)cc2)C1 [compound 324, (R)-tert-butyl_(1-(4-((3-carbamoyl-1-(2,6-dichlorophenyl)-1H-pyrazol-4-yl)amino)benzoyl)pyrrolidin-3-yl)carbamate] | 100 to 1000 nM | 100 to 1000 nM |
| CC(C)(C)OC(=O)N[C@H]1CCN(C(=O)c2ccc(Nc3cn(-c4c(Cl)cccc4Cl)nc3C(N)=O)cc2)C1 [compound 325, (S)-tert-butyl_(1-(4-((3-carbamoyl-1-(2,6-dichlorophenyl)-1H-pyrazol-4-yl)amino)benzoyl)pyrrolidin-3-yl)carbamate] | 10 to 100 nM | 100 to 1000 nM |
| COCCc1nc(C(F)(F)F)nn1-c1ccc(Nc2cn(-c3c(Cl)cccc3Cl)nc2C(N)=O)cc1 [compound 330, 1-(2,6-dichlorophenyl)-4-((4-(5-(2-methoxyethyl)-3-(trifluoromethyl)-1H-1,2,4-triazol-1-yl)phenyl)amino)-1H-pyrazole-3-carboxamide] | 10 to 100 nM | 10 to 100 nM |
| Cc1cnncc1-c1ccc(Nc2cn(-c3c(Cl)cccc3Cl)nc2C(N)=O)cc1 [compound 340, 1-(2,6-dichlorophenyl)-4-((4-(5-methylpyridazin-4-yl)phenyl)amino)-1H-pyrazole-3-carboxamide] | 10 to 100 nM | 100 to 1000 nM |
